# Laboratory results reported in US20220081421A1, “ANTIBACTERIAL COMPOUNDS” (Forge Therapeutics, Inc., priority 2018, published 2022).
# Tested on: K. pneumoniae
# Assay: MIC by broth microdilution (CLSI), K. pneumoniae
# Assay type: cell-based
# Conditions: Klebsiella pneumoniae, broth microdilution, cation adjusted Mueller-Hinton Broth, 35° C., 18-24 h; read-out: K. pneumoniae MIC
# Experimental: (§1) Minimal inhibitory concentrations (MIC) were determined by the broth microdilution method in accordance with the Clinical and Laboratory Standards Institute (CLSI) guidelines. In brief, organism suspensions were adjusted to a 0.5 McFarland standard to yield a final inoculum between 3×10^5 and 7×10^5 colony-forming units (CFU)/mL. Drug dilutions and inocula were made in sterile, cation adjusted Mueller-Hinton Broth (Beckton Dickinson). An inoculum volume of 100 μL was added to wells containing 100 μL of broth with 2-fold serial dilutions of drug. All inoculated microdilution trays were incubated in ambient air at 35° C. for 18-24 h. Following incubation, the lowest concentration of the drug that prevented visible growth (OD600 nm<0.05) was recorded as the MIC. Performance of the assay was monitored by the use of laboratory quality-control strains and levofloxacin, a compound with a defined MIC spectrum, in accordance with CLSI guidelines.
row,MIC [µg/mL],SMILES
1,8 to 32,"O=c1[nH]cnc(C2(Cc3ccc(C#Cc4ccc(CNC5CCOC5)cc4)cc3)CC2)c1O (stereo not shown) [Compound 136, 5-hydroxy-6-(1-(4-((4-(((tetrahydrofuran-3-yl)amino)methyl)phenyl)ethynyl)benzyl)cyclopropyl)pyrimidin-4(3H)-one]"
2,> 32,"O=c1[nH]cnc(C2(Cn3ccc(C#Cc4ccc(CN5CCOCC5)cc4)cc3=O)CC2)c1O [Compound 43, 5-hydroxy-6-(1-((4-((4-(morpholinomethyl)phenyl)ethynyl)-2-oxopyridin-1(2H)-yl)methyl)cyclopropyl) pyrimidin-4(3H)-one]"
3,1 to 8,"O=C(NCCO)c1ccc(C#CC#Cc2ccc(CC(CO)c3nc[nH]c(=O)c3O)cc2)cc1 (stereo not shown) [Compound 32, 4-((4-(3-hydroxy-2-(5-hydroxy-6-oxo-1,6-dihydropyrimidin-4-yl)propyl)phenyl)buta-1,3-diyn-1-yl)-N-(2-hydroxyethyl)benzamide]"

# Tested on: E. coli
# Assay: MIC by broth microdilution (CLSI), E. coli
# Assay type: cell-based
# Conditions: Escherichia coli, broth microdilution, cation adjusted Mueller-Hinton Broth, 35° C., 18-24 h; read-out: E. coli MIC
# Experimental: as §1
row,MIC [µg/mL],SMILES
1,> 32,"O=C(O)c1ccc(C#Cc2ccc(NCc3occc(=O)c3O)cc2)cc1 [Compound 123, 4-((4-(((3-hydroxy-4-oxo-4H-pyran-2-yl)methyl)amino)phenyl)ethynyl)benzoic acid]"
2,1 to 8,"O=c1[nH]cnc(C2(Cc3ccc(C#Cc4ccc(CNC5CCOC5)cc4)cc3)CC2)c1O (stereo not shown) [Compound 136, 5-hydroxy-6-(1-(4-((4-(((tetrahydrofuran-3-yl)amino)methyl)phenyl)ethynyl)benzyl)cyclopropyl)pyrimidin-4(3H)-one]"
3,> 32,"O=c1[nH]cnc(C2(Cn3ccc(C#Cc4ccc(CN5CCOCC5)cc4)cc3=O)CC2)c1O [Compound 43, 5-hydroxy-6-(1-((4-((4-(morpholinomethyl)phenyl)ethynyl)-2-oxopyridin-1(2H)-yl)methyl)cyclopropyl) pyrimidin-4(3H)-one]"
4,1 to 8,"O=C(NCCO)c1ccc(C#CC#Cc2ccc(CC(CO)c3nc[nH]c(=O)c3O)cc2)cc1 (stereo not shown) [Compound 32, 4-((4-(3-hydroxy-2-(5-hydroxy-6-oxo-1,6-dihydropyrimidin-4-yl)propyl)phenyl)buta-1,3-diyn-1-yl)-N-(2-hydroxyethyl)benzamide]"
5,> 32,"NC(=O)C(Cc1ccc(C#Cc2ccc(CN3CCOCC3)cc2)cc1)n1cccc(O)c1=O (stereo not shown) [Compound 6, 2-(3-hydroxy-2-oxopyridin-1(2H)-yl)-3-(4-((4-(morpholinomethyl)phenyl)ethynyl)phenyl)propanamide]"
6,8 to 32,"O=C1N(Cc2nc[nH]c(=O)c2O)Cc2cc(C#Cc3ccc(CN4CCOCC4)cc3)cn21 [Compound 81, 2-((5-hydroxy-6-oxo-1,6-dihydropyrimidin-4-yl)methyl)-6-((4-(morpholinomethyl)phenyl)ethynyl)-1,2-dihydro-3H-pyrrolo[1,2-c]imidazol-3-one]"
7,> 32,"O=c1ccoc(CS(=O)(=O)c2ccc(C#Cc3ccc(CN4CCOCC4)cc3)cc2)c1O [Compound 124, 3-hydroxy-2-(((4-((4-(morpholinomethyl)phenyl)ethynyl)phenyl)sulfonyl)methyl)-4H-pyran-4-one]"
8,8 to 32,"O=c1[nH]cnc(Cn2ccc(C#Cc3ccc(CN4CCOCC4)cc3)cc2=O)c1O [Compound 44, 5-hydroxy-6-((4-((4-(morpholinomethyl)phenyl)ethynyl)-2-oxopyridin-1(2H)-yl)methyl)pyrimidin-4(3H)-one]"
9,8 to 32,"CNC(=O)C(Cc1ccc(C#Cc2ccc(CN3CCOCC3)cc2)cc1)c1nccc(O)c1O (stereo not shown) [Compound 12, 2-(3,4-dihydroxypyridin-2-yl)-N-methyl-3-(4-((4-(morpholinomethyl)phenyl)ethynyl)phenyl)propanamide]"
10,> 32,"CS(=O)(=O)C(Cc1ccc(C#Cc2ccc(CN3CCOCC3)cc2)cc1)c1occc(=O)c1O (stereo not shown) [Compound 120, 3-hydroxy-2-(l1-(methylsulfonyl)-2-(4-((4-(morpholinomethyl)phenyl)ethynyl)phenyl)ethyl)-4H-pyran-4-one]"
11,8 to 32,"Cn1ccc(=O)c(O)c1CNc1ccc(C#Cc2ccc(CN3CCOCC3)cc2)cc1 [Compound 2, 3-hydroxy-1-methyl-2-(((4-((4-(morpholinomethyl)phenyl)ethynyl)phenyl)amino)methyl) pyridin-4(1H)-one]"
12,> 32,"CS(=O)(=O)NCC(Cc1ccc(C#Cc2ccc(CN3CCOCC3)cc2)cc1)n1cncc(O)c1=O (stereo not shown) [Compound 7, N-(2-(5-hydroxy-6-oxopyrimidin-1(6H)-yl)-3-(4-((4-(morpholinomethyl)phenyl)ethynyl)phenyl)propyl) methanesulfonamide]"
13,> 32,"N#CC(Cc1ccc(C#Cc2ccc(CN3CCOCC3)cc2)cc1)c1cc[nH]c(=O)c1O (stereo not shown) [Compound 121, 2-(3-hydroxy-2-oxo-1,2-dihydropyridin-4-yl)-3-(4-((4-(morpholinomethyl)phenyl)ethynyl)phenyl)propanenitrile]"
14,8 to 32,"O=c1[nH]cnc(CS(=O)(=O)c2ccc(C#Cc3ccc(CN4CCOCC4)cc3)cc2)c1O [Compound 118, 5-hydroxy-6-(((4-((4-(morpholinomethyl)phenyl)ethynyl)phenyl)sulfonyl)methyl) pyrimidin-4(3H)-one]"
15,> 32,"C=CCC(Nc1ccc(C#Cc2ccc(CN3CCOCC3)cc2)cc1)c1occc(=O)c1O (stereo not shown) [Compound 126, 3-hydroxy-2-(1-((4-((4-(morpholinomethyl)phenyl)ethynyl)phenyl)amino)but-3-en-1-yl)-4H-pyran-4-one]"
16,> 32,"CNC(=O)C(Cc1ccc(C#Cc2ccc(CN3CCOCC3)cc2)cc1)n1cncc(O)c1=O (stereo not shown) [Compound 4, 2-(5-hydroxy-6-oxopyrimidin-1(6H)-yl)-N-methyl-3-(4-((4-(morpholinomethyl)phenyl)ethynyl)phenyl)propanamide]"
17,1 to 8,"O=c1[nH]cnc(CCc2ncc(C#Cc3ccc(CN4CCOCC4)cc3)cn2)c1O [Compound 21, 5-hydroxy-6-(2-(5-((4-(morpholinomethyl)phenyl)ethynyl)pyrimidin-2-yl)ethyl)pyrimidin-4(3H)-one]"
18,> 32,"O=c1[nH]cnc(CNc2ccc(C#Cc3ccc(-c4ncco4)cc3)cc2)c1O [Compound 128, 5-hydroxy-6-(((4-((4-(oxazol-2-yl)phenyl)ethynyl)phenyl)amino)methyl)pyrimidin-4(3H)-one]"
19,> 32,"CC(=O)NCC(Cc1ccc(C#Cc2ccc(CN3CCOCC3)cc2)cc1)c1cc[nH]c(=O)c1O (stereo not shown) [Compound 1, N-(2-(3-hydroxy-2-oxo-1,2-dihydropyridin-4-yl)-3-(4-((4-(morpholinomethyl)phenyl)ethynyl)phenyl)propyl) acetamide]"
20,> 32,"NC(=O)C(Cc1ccc(C#Cc2ccc(CN3CCOCC3)cc2)cc1)n1cncc(O)c1=O (stereo not shown) [Compound 5, 2-(5-hydroxy-6-oxopyrimidin-1(6H)-yl)-3-(4-((4-(morpholinomethyl)phenyl)ethynyl)phenyl)propanamide]"
21,> 32,"O=c1[nH]cnc(C(Cc2ccc(C#Cc3ccc(CN4CCOCC4)cc3)cc2)Cn2cnnn2)c1O (stereo not shown) [Compound 119, 5-hydroxy-6-(1-(4-((4-(morpholinomethyl)phenyl)ethynyl)phenyl)-3-(1H-tetrazol-1-yl)propan-2-yl)pyrimidin-4(3H)-one]"
22,> 32,"O=C(Nc1ccc(C#CC#Cc2ccccc2)cc1)c1occc(=O)c1O [Compound 130, 3-hydroxy-4-oxo-N-(4-(phenylbuta-1,3-diyn-1-yl)phenyl)-4H-pyran-2-carboxamide]"
23,> 32,"O=c1[nH]cnc(CN(CCO)c2ccc(C#Cc3ccc(CN4CCOCC4)cc3)cc2)c1O [Compound 127, 5-hydroxy-6-(((2-hydroxyethyl)(4-((4-(morpholinomethyl)phenyl)ethynyl)phenyl)amino)methyl) pyrimidin-4(3H)-one]"
24,> 32,"O=c1[nH]cnc(CNc2ccc(C#Cc3ccc(-c4nnn[nH]4)cc3)cc2)c1O [Compound 129, 6-(((4-((4-(1H-tetrazol-5-yl)phenyl)ethynyl)phenyl)amino)methyl)-5-hydroxypyrimidin-4(3H)-one]"
25,> 32,"CC(=O)NCC(Cc1ccc(C#Cc2ccc(CN3CCOCC3)cc2)cc1)n1cncc(O)c1=O (stereo not shown) [Compound 3, N-(2-(5-hydroxy-6-oxopyrimidin-1(6H)-yl)-3-(4-((4-(morpholinomethyl)phenyl)ethynyl)phenyl)propyl) acetamide]"
